# Laboratory results from patent US12215067B2, “Chemical compounds targeting the eye and use thereof in the treatment of eye diseases” (BIOPHYTIS, priority 2019, dated 2025).
# What was measured:
# [1] = system: primary cultures of RPE of adult pigs; test: In vitro photoprotection of RPE cells illuminated with blue light in the presence of A2E; type: cell-based, pig; conditions: Sus scrofa, RPE, A2E 30 μM, survival 24 h after illumination; for viability at 5 µM: 5 μM compound; for viability at 10 µM: 10 μM compound; for viability at 20 µM: 20 μM compound
# Source text: In addition to better distribution in the target-tissue, selecting new compounds must also be based on good photo-protective activity that limits the loss of the cells of the RPE and thus reducing the retinal degeneration observed during the AMD and other degenerative diseases such as Retinitis pigmentosa and Stargardt's disease. At the cellular level, on cultures of cells the RPE coming from pig retina, Fontaine et al. (2016) have shown that a treatment with norbixin (BIO201) protects the cells of the RPE against apoptosis following an illumination in the presence of A2E (80% survival 24 h after exposure). This same screening test according to the percentage of photoprotection was used so as to determine its modulation by and the chemical compounds derived from norbixin (C) object of the present invention in comparison with the photo-protective effect of norbixin and characterize these modulations from a statical standpoint.
# The test in vitro described hereinabove and intended to study the photo-protective effect of norbixin was used so as to quantify the photo-protective effects of the various chemical compounds derived from norbixin (C) on the cells of the RPE illuminated with blue light in the presence of A2E (FIG. 3). The photo-protective effect of the molecules was evaluated in a phototoxicity cellular model induced by treatment by A2E followed by an illumination with blue light. The term “blue radiation” means the radiation corresponding to the blue band of the visible light spectrum, i.e. of a wavelength comprised between 435 and 490 nm. This model uses primary cultures of RPE of adult pigs. The cell survival is quantified thanks to a test of cellular viability. At −48 h the compounds to be tested (in solution at 5 mM in the DMSO) are added to obtain the final concentrations of 1 to 20 μM) then at −19 h of the A2E (final concentration 30 μM) and the cells (time 0 h) are illuminated. 24 h after the survival of the cells is measured. The acquisition of images, as well as the processing thereof, are carried out using a fluorescence microscope controlled by the Metamorph software and a dedicated quantification program. The experiments are conducted on a 96-well microplate in quadruplicate and the experiment is reproduced at least four times. The results are expressed in the form of a ratio representing the number of living cells in the wells treated by the molecules to be tested, divided by the number of living cells in the controlled wells (treated by the dilution medium without A2E). This test made it possible hereinabove to reveal the photo-protective activity of norbixin (Fontaine et al. 2016).
# [2] = Pharmacokinetic study via oral administration in mice, plasma concentrations; type: in vivo, mice C57BL/6; conditions: C57BL/6, mouse, in vivo, po, 50 mg/kg
# Method: (§1) The pharmacokinetic study of the chemical compounds (C) following the oral administration thereof was conducted using mice C57BL/6 (January, 53940 The Genest Saint Isle, France). The chemical compounds derived from norbixin (C) were administered at a dose of 50 mg/kg of body weight. After administration, the blood was sampled at the tail at t=0.25 h; 0.5 h; 1 h; 3 h; 6 h and 8 h. The blood samples were centrifuged and the plasmas taken. The dosage of the plasma samples made it possible to determine pharmacokinetic parameters, namely Cmax, which corresponds to the maximum concentration observed after the administration of the molecule, Tmax which is the time required to reach maximum concentration after administration of the molecule and the AUC: the area under the curve which corresponds to the plasma exposure (FIG. 2).
# (§2) The LC-MSMS analysis is carried out with a HPLC 1200 Infinity chain (Agilent Technologies, Santa-Clara, United States), a UV detector and a mass spectrometer QQQ6420 (Agilent Technologies Santa-Clara, United States). The injection volume is 5 μL. The chemical compounds C are eluted on an inverse phase column C18 (2.1*50 mm, particles 3 μm; Ace-C18-Excel, AIT) with a gradient of acetonitrile and water (containing 0.1% formic acid) and a flow rate of 0.3 mL/min. The conditions of the gradient can change according to the chemical compound C analyzed. The UV detector analyzes at 460 nm and the mass spectrometer analyzed in Mode MRM—Positive.
# (§3) Table 2 discloses the pharmacokinetic results of the chemical compounds C following the administration p.o. 50 mg/kg in D-α-Tocopheryl polyethylene glycol 1000 succinate (VitE-TPGS) 20% in a sodium bicarbonate buffer (0.1M).
# [3] = Pharmacokinetic study via oral administration in mice, ocular concentrations; type: in vivo, mice C57BL/6; conditions: for Tmax: C57BL/6, mouse, eye, po; for Eye Exposure 50 mg/kg p.o. AUC: Table 3, repeats the eye exposure of Table 2
# Method: as §1
# In parallel, the ocular concentrations of the chemical compounds derived from norbixin (C) were dosed in the following way (FIG. 1): both eyes of each mouse were taken in Precellys tubes and stored at −80° C. until the time of dosing. The eyes are then ground in the Precellys tubes with a bench homogenizer, Fast-prep (Fischer Scientific, Hampton, United States) in a mixture of organic solvents, in a first step with 500 μL of chloroform/methanol (1/1, v/v) then 500 μL of chloroform/dichloromethane (1/1, v/v). The supernatants are recovered at each step and transferred to a 96-well plate of 2 mL.
# For the quantification of the chemical compounds C, a calibration curve is carried out with 8 standards (5 to 5,000 ng/mL) in the same organic solvent mixtures and transferred (100 μL) to the 96-well plate of 2 mL.
# The supernatants and standards are evaporated in a EZ2 (Genevac, Ipswich, United Kingdom), without heating, then taken with 100 μL of DMSO/methanol (20:80, v/v) before being transferred to a 96-well plate of 200 μL.
# as §2, §3
# [4] = mice, p.o. 50 mg/kg in VitE-TPGS 20% in sodium bicarbonate buffer (0.1M)
SMILES,viability at 5 µM [1] [%],viability at 10 µM [1] [%],viability at 20 µM [1] [%],Cmax [2] [ng/mL],Plasma Exposure [2] [µg·h/mL],Tmax [2] [min],"Tmax [3, 4] [min]",Eye Exposure 50 mg/kg p.o. AUC [3] [ng · h/eye],"Eye CMax [3, 4] [ng/eye]","Eye Exposure ([3]; mice, p.o. 50 mg/kg in VitE-TPGS 20% in sodium bicarbonate buffer (0.1M), area under the curve) [ng · h/eye]"
"CC(=C/C=C/C(C)=C/C=C/C=C(C)/C=C/C=C(C)/C=C/C(=O)NCCN1CCOCC1)/C=C/C(=O)O [C10, 1-[2-morpholinoethanamido](2E,4E,6E,8E,10E,12E,14E,16Z,18E)-4,8,13,17-tetramethylicosa-2,4,6,8,10,12,14,16,18-nonaenedioate]",15.5,27.4,80.3,30400,108.1,60,60,533.2,64.3,
"CC(=C/C=C/C(C)=C/C=C/C=C(C)/C=C/C=C(C)/C=C/C(=O)N1CCC(O)CC1)/C=C/C(=O)O [C12, 1-[4-hydroxypiperidinamido](2E,4E,6E,8E,10E,12E,14E,16Z,18E)-4,8,13,17-tetramethylicosa-2,4,6,8,10,12,14,16,18-nonaenedioate]",7.7,14.3,59.6,29300,186.3,30,60,538.4,50.7,
"CC(=C/C=C/C(C)=C/C=C/C=C(C)/C=C/C=C(C)/C=C/C(=O)NCC(C)(C)N1CCOCC1)/C=C/C(=O)O [C13, 1-[2-methyl-2-(4-morpholinyl)propylamido](2E,4E,6E,8E,10E,12E,14E,16Z,18E)-4,8,13,17-tetramethylicosa-2,4,6,8,10,12,14,16,18-nonaenedioate]",8,0.5,8,27900,139.7,30,60,461.1,60.7,
"CC(=C/C=C/C(C)=C/C=C/C=C(C)/C=C/C=C(C)/C=C/C(=O)N1CCC(CO)CC1)/C=C/C(=O)O [C14, 1-[4-hydroxymethylpiperidinamido](2E,4E,6E,8E,10E,12E,14E,16Z,18E)-4,8,13,17-tetramethylicosa-2,4,6,8,10,12,14,16,18-nonaenedioate]",3.1,46.8,79.3,19000,162.2,30,60,322.5,43.2,
CC(=C/C=C/C(C)=C/C=C/C=C(C)/C=C/C=C(C)/C=C/C(=O)N1C[C@@H](C)O[C@@H](C)C1)/C=C/C(=O)O [C15],5.4,10,58.5,17300,46.99,30,30,108.5,22.8,108.5
"CC(=C/C=C/C(C)=C/C=C/C=C(C)/C=C/C=C(C)/C=C/C(=O)NCCc1ccc(O)cc1)/C=C/C(=O)O [C16, 1-[4-hydroxyphenylethanamido](2E,4E,6E,8E,10E,12E,14E,16Z,18E)-4,8,13,17-tetramethylicosa-2,4,6,8,10,12,14,16,18-nonaenedioate]",70.2,81.7,26.8,10500,13.23,60,30,8.7,7.4,
"CC(=C/C=C/C(C)=C/C=C/C=C(C)/C=C/C=C(C)/C=C/C(=O)N1CCC(C(=O)O)CC1)/C=C/C(=O)O [C18, 1-[4-carboxypiperidinamido](2E,4E,6E,8E,10E,12E,14E,16Z,18E)-4,8,13,17-tetramethylicosa-2,4,6,8,10,12,14,16,18-nonaenedioate]",27.3,43.1,63.8,61600,948.84,30,120,307.8,27.7,
"CC(=C/C=C/C(C)=C/C=C/C=C(C)/C=C/C=C(C)/C=C/C(=O)N[C@H]1CC[C@H](O)CC1)/C=C/C(=O)O [C19, 1-[(E)-4-hydroxycyclohexamido](2E,4E,6E,8E,10E,12E,14E,16Z,18E)-4,8,13,17-tetramethylicosa-2,4,6,8,10,12,14,16,18-nonaenedioate]",60.6,60.6,79.9,6620,22.8,15,30,37.5,5.7,
"COC1CCCN(C(=O)/C=C/C(C)=C/C=C/C(C)=C/C=C/C=C(C)/C=C/C=C(C)\C=C\C(=O)O)C1 (stereo not shown) [C20, 1-[3-methoxypiperidinamido](2E,4E,6E,8E,10E,12E,14E,16Z,18E)-4,8,13,17-tetramethylicosa-2,4,6,8,10,12,14,16,18-nonaenedioate]",65.6,65.6,79,35000,160.4,60,120,421.9,80.4,
"CCCOC1CCN(C(=O)/C=C/C(C)=C/C=C/C(C)=C/C=C/C=C(C)/C=C/C=C(C)\C=C\C(=O)O)CC1 [C22, 1-[4-n-propoxypiperidinamido](2E,4E,6E,8E,10E,12E,14E,16Z,18E)-4,8,13,17-tetramethylicosa-2,4,6,8,10,12,14,16,18-nonaenedioate]",64.5,72.8,66,12800,37.25,15,120,358.5,42.1,
